Test system: streptozotocin induced diabetic rats
Experiment: Serum insulin levels (chemiluminescence method, human specific kit)
Conditions: 30 days treatment

## COc1ccc(Cl)cc1C(=O)NCCc1ccc(S(=O)(=O)NC(=O)NC2CCCCC2)cc1 [Glibenclamide]
  insulin levels: 0.4 μIU/ml
